Observed efficacy and inhibition of growth data for twelve compounds are collected here from patent publication EP4640052A1 (BASF SE, priority 2024, dated 2025).

Several values for one entry are separate records, joined by “and”; a condition that tells them apart may be missing. Equal values may be shown once.

For assay [1], the system named is Pyricularia oryzae (PYRIOR). As to the kind of experiment: microbe, parasite or virus in culture. Type of assay: cell-based. Conditions: for Observed efficacy: single active; for inhibition of growth at 0.016 ppm / inhibition of growth at 0.063 ppm / inhibition of growth at 1 ppm / inhibition of growth at 0.004 ppm / inhibition of growth at 0.25 ppm: Pyricularia oryzae, 168 h, read-out: Observed efficacy.

The test system of assay [2] is Alternaria solani (ALTESO). As to the kind of experiment: microbe, parasite or virus in culture. Format: cell-based.
Assay [3] relates to Pyrenophora teres (PYRNTE), Qol resistant (F129L). As to the kind of experiment: microbe, parasite or virus in culture. Format: cell-based. The following applies: for inhibition of growth at 0.016 ppm / inhibition of growth at 0.063 ppm / inhibition of growth at 0.25 ppm / inhibition of growth at 1 ppm: Pyrenophora teres, 168 h, read-out: Observed efficacy.
Assay [4] concerns Puccinia triticina (syn. P. recondita). As to the kind of experiment: Green house use example 9: curative control of brown rust on wheat (PUCCRT K4). Format: in vivo.
A further assay has as its system Monilinia sp. (MONISP). As to the kind of experiment: microbe, parasite or virus in culture. Format: cell-based.
The subject of assay [5] is Sclerotinia sclerotiorum (SCLESC). As to the kind of experiment: microbe, parasite or virus in culture. Format: cell-based.
Assay [6] relates to Septoria tritici (SEPTTR). As to the kind of experiment: microbe, parasite or virus in culture. Format: cell-based.
In assay [7] the test system is Phakopsora pachyrhizi. Briefly: Green house use example 13: curative control of soybean rust on soybeans (PHAKPA F129L K4). Format: in vivo.
Assay [8] relates to Phakopsora pachyrhizi. Briefly: Green house use example 14: protective control of soybean rust on soybeans (PHAKPA F129L P2). Type of assay: in vivo. The following applies: single compound.
The mark [9] stands for this setting: Alternaria solani, 168 h, read-out: Observed efficacy.
Where [10] appears, read: Monilinia, 168 h, read-out: Observed efficacy.
Setting [11] is: Sclerotinia sclerotiorum, 168 h, read-out: Observed efficacy.
The mark [12] stands for this setting: Zymoseptoria tritici, 168 h, read-out: Observed efficacy.

In the case of `CC(O)(Cn1cncn1)c1ccc(Oc2ccc(Cl)cc2)cc1C(F)(F)F` (racemic) [mefentrifluconazole, reference compound], the Observed efficacy in assay [1] (0.063 ppm) was 0%; in [1] (1 ppm), 53%; in [2], 27; in [3], 40 and 22; in [4] (1 ppm), 39; in [4] (4 ppm), 54.

Turning to `CO/C=C(/C(=O)OC)c1cccc(Br)c1CO/N=C(\COC)c1ccccc1` [I.2, Methyl (E)-2-[3-bromo-2-[[(Z)-(2-methoxy-1-phenyl-ethylidene)amino]oxymethyl]-phenyl]-3-methoxy-prop-2-enoate], in [1], the inhibition of growth at 0.016 ppm is 0%, the inhibition of growth at 0.063 ppm is 0% and the inhibition of growth at 1 ppm was found to be 31%. Besides, the inhibition of growth at 0.063 ppm in assay [2] (setting [9]) turned out to be 36%. Moreover, in the assay with Monilinia sp. (MONISP) (setting [10]), the inhibition of growth at 0.001 ppm came to 0%, the inhibition of growth at 0.016 ppm stood at 0% and the inhibition of growth at 0.063 ppm worked out at 18%. Besides, in assay [3], the inhibition of growth at 0.016 ppm stood at 7%, the inhibition of growth at 0.063 ppm amounted to 34%, the inhibition of growth at 0.25 ppm turned out to be 44% and the inhibition of growth at 1 ppm was 60%. Further, in [5] (setting [11]), the inhibition of growth at 0.063 ppm stood at 7% and the inhibition of growth at 1 ppm stood at 41%.

In the case of `CO/C=C(/C(=O)OC)c1cccc(C)c1CO/N=C(\COC)c1ccccc1` [I.3, Methyl (E)-3-methoxy-2-[2-[[(Z)-(2-methoxy-1-phenyl-ethylidene)amino]oxymethyl]-3-methyl-phenyl]prop-2-enoate], the inhibition of growth at 0.016 ppm in assay [1] was determined as 33%; in [6] (setting [12]), 0%; in assay [2] (setting [9]) it was 32%; in assay [3] it was 26%; in [5] (setting [11]), 0%. The inhibition of growth at 0.063 ppm came out at 21% in assay [6] (setting [12]); 59% in [2] (setting [9]); 51% in the assay with Monilinia sp. (MONISP) (setting [10]); 43% in assay [3]; 3% in assay [5] (setting [11]). Further, the values for the inhibition of growth at 0.25 ppm in assay [6] (setting [12]), in assay [3] and in assay [5] (setting [11]) were 49%, 51% and 2%, respectively. In addition, the inhibition of growth at 0.004 ppm in assay [2] (setting [9]) came out at 11%. Further, the inhibition of growth at 1 ppm in assay [3] is 62%.

With `CO/C=C(/C(=O)OC)c1cccc(Cl)c1CO/N=C(\COC)c1ccc(F)cc1` [I.5, Methyl-(E)-2-[3-chloro-2-[[(Z)-[1-(4-fluorophenyl)-2-methoxy-ethylidene]amino]-oxy¬imethyl]phenyl]-3-methoxy-prop-2-enoate], the figures for the Observed efficacy (in assay [1] (0.063 ppm); with Monilinia sp. (MONISP); in assay [5]) were 28%, 56 and 0, respectively.

For the compound `CO/C=C(/C(=O)OC)c1cccc(Cl)c1CO/N=C(\COC)c1ccc(F)cc1F` [I.6, Methyl (E)-2-[3-chloro-2-[[(Z)-[1-(2,4-difluorophenyl)-2-methoxy-ethylidene]amino]-oxymethyl]phenyl]-3-methoxy-prop-2-enoate], in assay [1], the inhibition of growth at 0.004 ppm is 0%, the inhibition of growth at 0.016 ppm came to 0%, the inhibition of growth at 0.063 ppm was determined as 0% and the inhibition of growth at 1 ppm stood at 24%. In assay [2] (setting [9]), the inhibition of growth at 0.016 ppm amounted to 10%, the inhibition of growth at 0.063 ppm stood at 18% and the inhibition of growth at 0.25 ppm was 34%. In the assay on Monilinia sp. (MONISP) (setting [10]), the inhibition of growth at 0.016 ppm was 10% and the inhibition of growth at 0.063 ppm is 7%. Besides, in [3], the inhibition of growth at 0.016 ppm is 2%, the inhibition of growth at 0.063 ppm was found to be 27%, the inhibition of growth at 0.25 ppm stood at 42% and the inhibition of growth at 1 ppm came to 54%. Further, in [5] (setting [11]), the inhibition of growth at 0.016 ppm is 4%, the inhibition of growth at 0.063 ppm came out at 5% and the inhibition of growth at 1 ppm amounted to 47%.

Regarding `CO/C=C(/C(=O)OC)c1cccc(F)c1CO/N=C(\COC)c1c(F)cc(F)cc1F` [I.8, Methyl (E)-2-[3-fluoro-2-[[(Z)-[2-methoxy-1-(2,4,6-trifluorophenyl)ethylidene]amino]-oxymethyl]phenyl]-3-methoxy-prop-2-enoate], the results for the inhibition of growth at 0.016 ppm in [1], in assay [2] (setting [9]) and in [3] were 0%, 2% and 1%, respectively. Moreover, the inhibition of growth at 0.063 ppm amounted to 0% in assay [1], 0% in assay [2] (setting [9]), 14% in assay [3] and 0% in [5] (setting [11]). The inhibition of growth at 0.25 ppm is 2% in assay [1], 4% in assay [2] (setting [9]), 42% in the assay on Monilinia sp. (MONISP) (setting [10]) and 20% in [3]. In addition, the inhibition of growth at 1 ppm was found to be 18% in assay [1], 59% in assay [2] (setting [9]) and 44% in [3].

`N#Cc1c[nH]cc1-c1cccc2c1OC(F)(F)O2` [fludioxonil, reference compound]: the inhibition of growth at 0.004 ppm (in [1]; in the assay on Monilinia sp. (MONISP) (setting [10])) was 8% each time. The inhibition of growth at 0.016 ppm in assay [1] was 35%; in assay [2] (setting [9]), 5%. In addition, the inhibition of growth at 0.063 ppm in [1] was 59%; in assay [6] (setting [12]) it was 5%; in assay [2] (setting [9]), 29%; in assay [3], 51%; in [5] (setting [11]), 67%. Moreover, the inhibition of growth at 0.25 ppm was 59% in assay [1] and 5% in assay [6] (setting [12]). Further, in [6] (setting [12]), the inhibition of growth at 1 ppm turned out to be 0%.

Turning to `O=C(Nc1ccccc1F)c1ccc(-c2noc(C(F)(F)F)n2)cc1` [flufenoxadiazam, reference compound], the Observed efficacy in assay [1] (0.004 ppm) was 2%; in assay [6] it was 2 and 3; in [3], 5; with Phakopsora pachyrhizi [7] (Trial 1, single compound, 2 ppm) it was 15; in the assay with Phakopsora pachyrhizi [7] (Trial 1, single compound, 4 ppm), 31; in the assay on Phakopsora pachyrhizi [7] (Trial 2, single compound, 2 ppm), 17. Also, the Observed efficacy in the assay on Phakopsora pachyrhizi [7] (Trial 2, single compound, 4 ppm) was determined as 34; with Phakopsora pachyrhizi [8] (0.5 ppm), 0; in the assay with Phakopsora pachyrhizi [8] (2 ppm), 63.

Regarding `Cc1cccc(-n2nnn(C)c2=O)c1COc1ccn(-c2ccc(Cl)cc2)n1` [metyltetraprole, reference compound], the Observed efficacy in assay [1] (0.016 ppm) came out at 30%; in assay [1] (0.063 ppm) it was 70%; in assay [2], 22; in the assay with Monilinia sp. (MONISP) it was 17.

On to `OC(Cc1ccccc1Cl)(Cn1nc[nH]c1=S)C1(Cl)CC1` (centres unmarked) [prothioconazole, reference compound], for which, in [1], the inhibition of growth at 0.25 ppm stood at 1% and the inhibition of growth at 1 ppm came out at 12%. For the same compound, in assay [6] (setting [12]), the inhibition of growth at 0.063 ppm stood at 5% and the inhibition of growth at 0.25 ppm came out at 67%. Also, in [2] (setting [9]), the inhibition of growth at 0.25 ppm was determined as 10% and the inhibition of growth at 1 ppm worked out at 14%. In the assay on Monilinia sp. (MONISP) (setting [10]), the inhibition of growth at 0.004 ppm worked out at 19%.

Take mancozeb [reference compound]: the Observed efficacy is 11% in assay [1] (0.004 ppm); 34% in [1] (0.016 ppm); 54% in assay [1] (0.063 ppm); 18 and 19 and 13 in assay [6]; 59 in [3]; 59 in [5].

Take metarylpicoxamid: the Observed efficacy in the assay with Phakopsora pachyrhizi [7] (Trial 3, single compound, 1 ppm) is recorded as 20; in the assay on Phakopsora pachyrhizi [7] (Trial 3, single compound, 2 ppm), 66.
